Measurements published in patent publication US20230146795A1, “ENHANCEMENT OF ANTI-TUMOR ACTIVITY OF SHP2 INHIBITOR PYRIMIDINONE IN COMBINATION WITH NOVEL CANCER MEDICINES IN CANCERS” (TAIHO PHARMACEUTICAL CO., LTD., priority 2020, published 2023).

What was measured:
Format in all cases: cell-based
RMG-I = assay: Anti-proliferation assay (CellTiter-Glo 2.0), combination index, RMG-I
Protocol: (§1) Cell lines were obtained from ATCC or Health Science Research Resources Bank.
(§2) 384 well culture plate (781086, Greiner Bio-One International) was used for cell survival rate measurement assay. Each cell lines were collected by ordinary method, then suspended in indicated medium containing 10% fetal bovine serum in table 3. The number of cells seeded per well was set to 500 cells/20 μL. After incubation at 37° C. for 24 hours under 5% CO2, Compound 1 and additional compound having an antitumor effect or a vehicle (DMSO) was added to each well by using D300e Digital Dispenser (Tecan). The concentration of Compound 1 was set to 10 concentrations. The concentration of each anti-cancer reagents set to 8 concentrations including 0 nM. After adding the medicine to the cells, the cells were further incubated at 37° C. for 3 days under 5% CO2. Cell survival rates were calculated by adding 20 μL of CellTiter-Glo(registered trademark) 2. 0 (Promega) solution to each well, incubating the cells at room temperature for 10 minutes, and then measuring the chemiluminescence intensity of each well using a plate reader (ARVO).
(§3) A combination index (CI) value at each combined concentration of the medicines was determined.

RT4 = assay: Anti-proliferation assay (CellTiter-Glo 2.0), combination index, RT4
Protocol: as §1
(§4) Each cell lines were collected by ordinary method, then suspended in indicated medium containing 10% fetal bovine serum in table 3. The number of cells seeded per well was set to 500 cells/20 μL. […] The concentration of each anti-cancer reagents set to 8 concentrations including 0 nM. After adding the medicine to the cells, the cells were further incubated at 37° C. for 3 days under 5% CO2. Cell survival rates were calculated by adding 20 μL of CellTiter-Glo(registered trademark) 2. 0 (Promega) solution to each well, incubating the cells at room temperature for 10 minutes, and then measuring the chemiluminescence intensity of each well using a plate reader (ARVO).
as §3

MV-4-11 = assay: Anti-proliferation assay (CellTiter-Glo 2.0), combination index, MV-4-11
Protocol: as §1, §2, §3

NCI-H358 = assay: Anti-proliferation assay (CellTiter-Glo 2.0), combination index, NCI-H358; settings: for Description (combinatory effect by CI): Compound 1:combination drug molar ratio 1:9
Protocol: as §1, §4, §3

MKN45 = assay: Anti-proliferation assay (CellTiter-Glo 2.0), combination index, MKN45
Protocol: as §1, §4, §3

[1] = Compound 1 123 + combination drug 1110 nmol/L (1:9)
[2] = Compound 1 370 + combination drug 3330 nmol/L (1:9)
[3] = Compound 1 1110 + combination drug 10000 nmol/L (1:9)
[4] = Compound 1:combination drug molar ratio 1:9
[5] = Compound 1 13.7 + combination drug 370 nmol/L (1:27)
[6] = Compound 1 41.2 + combination drug 1110 nmol/L (1:27)
[7] = Compound 1 123 + combination drug 3330 nmol/L (1:27)
[8] = Compound 1 370 + combination drug 10000 nmol/L (1:27)
[9] = Compound 1:combination drug molar ratio 1:27
[10] = Compound 1 13.7 + combination drug 13.7 nmol/L (1:1)
[11] = Compound 1 41.2 + combination drug 41.2 nmol/L (1:1)
[12] = Compound 1 123 + combination drug 123 nmol/L (1:1)
[13] = Compound 1 1.52 + combination drug 123 nmol/L (1:81)
[14] = Compound 1 13.7 + combination drug 1110 nmol/L (1:81)
[15] = Compound 1 41.2 + combination drug 3330 nmol/L (1:81)
[16] = Compound 1 123 + combination drug 10000 nmol/L (1:81)
[17] = Compound 1:combination drug molar ratio 1:81
[18] = Compound 1 4.57 + combination drug 370 nmol/L (1:81)
[19] = Compound 1 4.57 + combination drug 41.2 nmol/L (1:9)
[20] = Compound 1 13.7 + combination drug 123 nmol/L (1:9)
[21] = Compound 1 41.2 + combination drug 370 nmol/L (1:9)

With `CC1(C)CCC(CN2CCN(c3ccc(C(=O)NS(=O)(=O)c4ccc(NCC5CCOCC5)c([N+](=O)[O-])c4)c(Oc4cnc5[nH]ccc5c4)c3)CC2)=C(c2ccc(Cl)cc2)C1` [Venetoclax] the CI (RMG-I; [1]) was 0.687, the Fa (RMG-I; [1]) was 0.4133 and the CI (RMG-I; [2]) was 0.601. It also gave a Fa (RMG-I; [2]) of 0.5921, a CI (RMG-I; [3]) of 0.668 and a Fa (RMG-I; [3]) of 0.9240. For the same molecule, the “Description (combinatory effect by CI)” value (RMG-I; [4]) was “Synergy (0.3-0.7)”, the CI (RT4; [5]) was 0.479 and the Fa (RT4; [5]) was 0.1751. The CI (RT4; [6]) was 0.497, the Fa (RT4; [6]) was 0.3605 and the CI (RT4; [7]) was 0.888. For the same molecule, the Fa (RT4; [7]) was 0.5099, the CI (RT4; [8]) was 0.888 and the Fa (RT4; [8]) was 0.8781. The “Description (combinatory effect by CI)” value (RT4; [9]) was “Synergy (0.3-0.7)”, the CI (MV-4-11; [10]) was 0.424 and the Fa (MV-4-11; [10]) was 0.7436. It also gave a CI (MV-4-11; [11]) of 0.080, a Fa (MV-4-11; [11]) of 0.9696 and a CI (MV-4-11; [12]) of 0.007. The Fa (MV-4-11; [12]) was 0.9987.

`CC[C@H](Nc1ncnc2[nH]cnc12)c1nc2cccc(F)c2c(=O)n1-c1ccccc1` [Idelalisib] was tested, and the CI (RMG-I; [13]) was 0.778, the Fa (RMG-I; [13]) was 0.0902 and the CI (RMG-I; [14]) was 0.511. It also gave a Fa (RMG-I; [14]) of 0.2747, a CI (RMG-I; [15]) of 0.333 and a Fa (RMG-I; [15]) of 0.5012. For the same molecule, the CI (RMG-I; [16]) was 0.570, the Fa (RMG-I; [16]) was 0.6059 and the “Description (combinatory effect by CI)” value (RMG-I; [17]) was “Synergy (0.3-0.7)”. The CI (MV-4-11; [13]) was 0.301, the Fa (MV-4-11; [13]) was 0.2988 and the CI (MV-4-11; [18]) was 0.600. The Fa (MV-4-11; [18]) was 0.3705, the CI (MV-4-11; [14]) was 0.330 and the Fa (MV-4-11; [14]) was 0.7136. For the same molecule, the CI (MV-4-11; [15]) was 0.262, the Fa (MV-4-11; [15]) was 0.8924 and the CI (MV-4-11; [16]) was 0.273. For the same molecule, the Fa (MV-4-11; [16]) was 0.9566.

Work on `C#Cc1cccc(Nc2ncnc3cc(OCCOC)c(OCCOC)cc23)c1` [Erlotinib] yielded a CI (RT4; [18]) of 0.421, a Fa (RT4; [18]) of 0.2843 and a CI (RT4; [14]) of 0.464. For the same molecule, the Fa (RT4; [14]) was 0.4079, the CI (RT4; [15]) was 0.441 and the Fa (RT4; [15]) was 0.5677. The CI (RT4; [16]) was 0.308, the Fa (RT4; [16]) was 0.7514 and the “Description (combinatory effect by CI)” value (RT4; [17]) was “Synergy (0.3-0.7)”. For the same molecule, the CI (MV-4-11; [13]) was 0.808, the Fa (MV-4-11; [13]) was 0.0915 and the CI (MV-4-11; [18]) was 0.880. For the same molecule, the Fa (MV-4-11; [18]) was 0.2460, the CI (MV-4-11; [14]) was 0.610 and the Fa (MV-4-11; [14]) was 0.6556. The CI (MV-4-11; [15]) was 0.632, the Fa (MV-4-11; [15]) was 0.8799 and the CI (MV-4-11; [16]) was 0.962. The Fa (MV-4-11; [16]) was 0.9472, the “Description (combinatory effect by CI)” value (MV-4-11; [17]) was “Synergy (0.3-0.7)” and the CI (NCI-H358; [19]) was 0.617. The Fa (NCI-H358; [19]) was 0.1600, the CI (NCI-H358; [20]) was 0.145 and the Fa (NCI-H358; [20]) was 0.3804. For the same molecule, the CI (NCI-H358; [21]) was 0.102, the Fa (NCI-H358; [21]) was 0.5542 and the CI (NCI-H358; [1]) was 0.206. The Fa (NCI-H358; [1]) was 0.6026, the CI (NCI-H358; [2]) was 0.256 and the Fa (NCI-H358; [2]) was 0.7034. The CI (NCI-H358; [3]) was 0.225 and the Fa (NCI-H358; [3]) was 0.8178.

`Cc1nc(NC(=O)N2CCC[C@H]2C(N)=O)sc1-c1ccnc(C(C)(C)C(F)(F)F)c1` [Alpelisib] was tested, and the CI (RT4; [13]) was 0.255, the Fa (RT4; [13]) was 0.0658 and the CI (RT4; [14]) was 0.247. For the same molecule, the Fa (RT4; [14]) was 0.2690, the CI (RT4; [15]) was 0.318 and the Fa (RT4; [15]) was 0.4427. For the same molecule, the CI (RT4; [16]) was 0.528, the Fa (RT4; [16]) was 0.5855 and the CI (NCI-H358; [21]) was 0.451. It also gave a Fa (NCI-H358; [21]) of 0.1532, a CI (NCI-H358; [1]) of 0.356 and a Fa (NCI-H358; [1]) of 0.4353. It also gave a CI (NCI-H358; [2]) of 0.589, a Fa (NCI-H358; [2]) of 0.5959 and a CI (NCI-H358; [3]) of 0.844. The Fa (NCI-H358; [3]) was 0.7671, the “Description (combinatory effect by CI)” value (NCI-H358) was “Synergy (0.3-0.7)” and the CI (MKN45; [5]) was 0.700. For the same molecule, the Fa (MKN45; [5]) was 0.1253, the CI (MKN45; [6]) was 0.426 and the Fa (MKN45; [6]) was 0.4108. The CI (MKN45; [7]) was 0.655, the Fa (MKN45; [7]) was 0.5920 and the CI (MKN45; [8]) was 0.772. For the same molecule, the Fa (MKN45; [8]) was 0.8141 and the “Description (combinatory effect by CI)” value (MKN45; [9]) was “Synergy (0.3-0.7)”.

`COc1cc2c(Nc3ccc(Br)cc3F)ncnc2cc1OCC1CCN(C)CC1` [Vandetanib] was tested, and the CI (RMG-I; [21]) was 0.428, the Fa (RMG-I; [21]) was 0.4951 and the CI (RMG-I; [1]) was 0.938. The Fa (RMG-I; [1]) was 0.5602, the “Description (combinatory effect by CI)” value (RMG-I; [4]) was “Synergy (0.3-0.7)” and the CI (RT4; [5]) was 0.486. For the same molecule, the Fa (RT4; [5]) was 0.3118, the CI (RT4; [6]) was 0.444 and the Fa (RT4; [6]) was 0.5143. The CI (RT4; [7]) was 0.570, the Fa (RT4; [7]) was 0.6645 and the CI (RT4; [8]) was 0.541. The Fa (RT4; [8]) was 0.8261, the “Description (combinatory effect by CI)” value (RT4; [9]) was “Synergy (0.3-0.7)” and the CI (MV-4-11; [18]) was 0.912. The Fa (MV-4-11; [18]) was 0.5454, the CI (MV-4-11; [14]) was 0.557 and the Fa (MV-4-11; [14]) was 0.8322. The CI (MV-4-11; [15]) was 0.503, the Fa (MV-4-11; [15]) was 0.9448 and the CI (MV-4-11; [16]) was 0.294. It also gave a Fa (MV-4-11; [16]) of 0.9916, a CI (NCI-H358; [21]) of 0.322 and a Fa (NCI-H358; [21]) of 0.2982. For the same molecule, the CI (NCI-H358; [1]) was 0.300, the Fa (NCI-H358; [1]) was 0.5211 and the CI (NCI-H358; [2]) was 0.589. The Fa (NCI-H358; [2]) was 0.6208, the CI (NCI-H358; [3]) was 0.733 and the Fa (NCI-H358; [3]) was 0.8142. The “Description (combinatory effect by CI)” value (NCI-H358) was “Synergy (0.3-0.7)”.
